# Key:
# rumen liquor [1] = experiment: In vitro test for methane production (modified Hohenheim Forage value Test, HFT); format: cell-based; conditions: for Total methane: 8 h, 39° C., artificial TMR, average of three experiments
# Method: In Vitro Test for Methane Production:
# (§1) A modified version of the “Hohenheim Forage value Test (HFT)” was used for testing the effect of specific compounds on the rumen functions mimicked by this in-vitro system.
# (§2) Feed is gadded into a syringe with a composition of rumen liquor and an appropriate mixture of buffers. The solution is incubated at 39° C. After 8 hours the quantity (and composition) of gas phase produced is measured and put into a formula for conversion.
# (§3) The feed stuff is sieved to 1 mm—usually TMR (44% concentrate, 6% hay, 37% maize silage and 13% grass silage)—and weighed exactly into 64 syringes. 4 of these syringes are the substrate controls, which display the gas production without the effect of the tested compounds. […] When needed, 4 syringes contain a carrier control (if the test compounds need a carrier). The remaining syringes contain the test substances, by groups of 4 syringes.
# (§4) Preparation of the Medium Solution: • The components are mixed in a Woulff bottle in following order: • 711 ml water • 0.18 ml trace element solution • 355.5 ml buffer solution • 355.5 ml mass element solution • The completed solution is warmed up to 39° C. followed by the addition of 1.83 ml sodium salt solution and the addition of reduction solution at 36° C. The rumen liquor is added, when the indicator turns colourless.
# (§5) 750 ml of rumen liquor are added to approximately 1,400 ml of medium solution under continued agitation and CO2-gassing.
# (§6) The diluted rumen fluid (24 ml) is added to the glass syringe. The syringes are then incubated for 8 hours at 39° C. under gentle agitation. After 8 hours, the volume of gas produced is measured, and the percentage of methane in the gas phase is determined by gas chromatography.
# (§7) The food fermented was artificial TMR (44% concentrate, 6% hay, 37% maize silage and 13% grass silage). Lauric acid from Sigma Aldrich was used at a concentration of 1000 μM. 3-Nitrooxy-propanol (3-NOP) was used at two different concentrations, 2.5 μM and 5 μM.
# (§8) Ace.=acetate; Prop.=propionate
# rumen liquor [2] = experiment: Effect on volatile fatty acids (VFA) profile, acetate/propionate ratio (modified Hohenheim Forage value Test, HFT); format: cell-based; conditions: for Ace./Prop.: 8 h, 39° C., artificial TMR, average of three experiments
# Method: as §1, §2, §3, §4, §5
# Filling the Syringes, Incubation and Determining Gas Volumes and VFA Values:
# as §6, §7, §8
SMILES,Reduction vs. control (methane) (rumen liquor [1]; 3-NOP 2.5 μM),Total methane (rumen liquor [1]; 3-NOP 2.5 μM),Reduction vs. control (methane) (rumen liquor [1]; 3-NOP 5 μM),Total methane (rumen liquor [1]; 3-NOP 5 μM),Reduction vs. control (Ace./Prop.) (rumen liquor [2]; 3-NOP 2.5 μM),Ace./Prop. (rumen liquor [2]; 3-NOP 2.5 μM),Reduction vs. control (Ace./Prop.) (rumen liquor [2]; 3-NOP 5 μM),Ace./Prop. (rumen liquor [2]; 3-NOP 5 μM),Reduction vs. control (methane) (rumen liquor [1]; Lauric acid 1000 μM),Total methane (rumen liquor [1]; Lauric acid 1000 μM),Reduction vs. control (Ace./Prop.) (rumen liquor [2]; Lauric acid 1000 μM),Ace./Prop. (rumen liquor [2]; Lauric acid 1000 μM)
"O=[N+]([O-])OCCCO [3-NOP, 3-Nitrooxypropanol]",0.023 mmol over 8 h,0.244 mmol over 8 h,0.17 mmol over 8 h,0.097 mmol over 8 h,0.17 Mole Ratio,2.09 Mole Ratio,0.63 Mole Ratio,1.63 Mole Ratio,,,,
"CCCCCCCCCCCC(=O)O [Lauric acid, reference compound]",,,,,,,,,0.012 mmol over 8 h,0.255 mmol over 8 h,0.28 Mole Ratio,1.98 Mole Ratio

# Source: patent publication US11191288B2, “Use of a feed composition for reducing methane emission in ruminants, and/or to improve ruminant performance” (DSM IP ASSETS B.V., priority 2017, dated 2021)
